These results are taken from patent US5593970A, “Heterocyclic anthracycline analogs” (priority 1994, dated 1997).

Structures can show the parent of a compound that is named as a salt. Where two headings read alike, the source gives them in different places.

In one assay the test system is SKOV3. Put plainly: Microculture tetrazolium assay. As to conditions: read-out: IC50. The class given is cell-based.
The subject of assay [1] is HT29. Put plainly: Soft agar colony formation disk diffusion assay. The class given is cell-based, human. The gist of the method:
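Cells were plated at 10^4–2×10^5 cells per dish in a 0.4% Noble agar upper layer over 0.8% agar. The compound (DMSO/water solution) was applied on a 6.5 mm filter disk, and plates were incubated at 37 °C, 5% CO2 for 10–20 days. Anti-clonogenic activity was measured microscopically as the inhibition zone from the disk edge to the nearest colonies (>50 cells).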
On the technique in general: In agar diffusion tests the substance spreads into inoculated agar from a disc or well.

For assay [2], the system named is HT29. Put plainly: Microculture tetrazolium assay. The class given is cell-based. Conditions: read-out: IC50.
Another assay relates to MATB.WT. Put plainly: Soft agar colony formation disk diffusion assay. In kind it is cell-based, rat. The gist of the method:
(§1)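 Anti-clonogenic activity is scored as the distance from the drug-loaded disk edge to the closest colony of more than 50 cells. Solid tumour and leukaemia lines are plated in separate dishes in two-layer soft agar and incubated 10-20 days at 37° C.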

The next assay relates to MATB/ADR. Put plainly: Soft agar colony formation disk diffusion assay. The class given is cell-based, rat. The gist of the method: as §1
A further assay has as its system LOX. Put plainly: Microculture tetrazolium assay. In kind it is cell-based. Conditions: read-out: IC50.
The next assay relates to M5076. Put plainly: Soft agar colony formation disk diffusion assay. The class given is cell-based, murine. The gist of the method: as §1
Another assay relates to B16. Put plainly: Soft agar colony formation disk diffusion assay. The class given is cell-based, murine. The gist of the method:
as §1

A further assay has as its system P388. Put plainly: Soft agar colony formation disk diffusion assay. In kind it is cell-based, murine. The gist of the method:
as §1

In a further assay the test system is P388/ADR. Put plainly: Soft agar colony formation disk diffusion assay. In kind it is cell-based, murine. The gist of the method:
as §1

Another assay has as its system LL. Put plainly: Soft agar colony formation disk diffusion assay. The class given is cell-based, murine. The gist of the method:
as §1

For a further assay, the system named is T47D. Put plainly: Microculture tetrazolium assay. The class given is cell-based. Conditions: read-out: IC50.

In the case of “3-(2-hydroxy)aceto-6-hydroxy-1,2,3,4-tetrahydro-(2-oxygen)naphthacene-5,12-dione and 3-(2-hydroxy)aceto-11-hydroxy-1,2,3,4-tetrahydro-(2-oxygen)naphthacene-5,12-dione [BCH-694]”, the 50% inhibitory concentration (IC50) (commonly the concentration at which inhibition is half-maximal) in the assay on SKOV3 (SKOV3) came to 8.22 µM; in the assay with HT29 [2] (HT29) it was 13.4 µM; with LOX, 15 µM; in the assay with T47D, 11.3 µM. The zone of inhibition in the assay on HT29 [1] (10 μg/DISK) came out at 30.5 ± 8.6 Zone Units; in the assay with HT29 [1] (100 μg/DISK), 143.3 ± 30.1 Zone Units; in the assay with MATB.WT (10 μg/DISK) it was 76.2 ± 2.5 Zone Units; in the assay on MATB.WT (100 μg/DISK) it was 207.0 ± 33.9 Zone Units; in the assay on MATB/ADR (10 μg/DISK), 27.4 ± 4.3 Zone Units; in the assay with MATB/ADR (100 μg/DISK) it was 213.5 ± 43.1 Zone Units. For the same compound, the zone of inhibition is 27.4 ± 4.3 Zone Units in the assay with M5076 (10 μg/DISK); 137.2 ± 99.2 Zone Units in the assay on M5076 (100 μg/DISK); 0 Zone Units in the assay on B16 (10 μg/DISK); 128.0 ± 26.0 Zone Units in the assay on B16 (100 μg/DISK); 67.1 ± 8.6 Zone Units in the assay on P388 (10 μg/DISK); 115.9 ± 94.8 Zone Units with P388 (100 μg/DISK). In addition, the zone of inhibition with P388/ADR (10 μg/DISK) is reported as 6.1 ± 8.6 Zone Units; with P388/ADR (100 μg/DISK), 39.6 ± 12.9 Zone Units; in the assay on LL (100 μg/DISK), 30.5 ± 8.6 Zone Units.
Regarding “3-carbomethoxy-6-hydroxy-1,2,3,4-tetrahydro-(2-sulfur)naphthacene-5,12-dione and 3-carbomethoxy-11-hydroxy-1,2,3,4-tetrahydro(2-sulfur)naphthacene-5,12-dione [BCH-693]”, the IC50 in the assay on SKOV3 (SKOV3) came out at 41.6 µM; in the assay on HT29 [2] (HT29) it was 18.9 µM; in the assay on LOX it was 48 µM; in the assay with T47D, 16.3 µM. Moreover, the zone of inhibition in the assay on HT29 [1] (10 μg/DISK) is reported as 0 Zone Units; in the assay with HT29 [1] (100 μg/DISK), 39.6 ± 4.3 Zone Units; in the assay on MATB.WT (10 μg/DISK), 0 Zone Units; in the assay with MATB.WT (100 μg/DISK) it was 42.7 ± 8.8 Zone Units; in the assay with MATB/ADR (10 μg/DISK) it was 0 Zone Units; with MATB/ADR (100 μg/DISK), 67.1 ± 8.6 Zone Units. The zone of inhibition with M5076 (10 μg/DISK) amounted to 27.4 ± 4.3 Zone Units; in the assay on M5076 (100 μg/DISK), 51.8 ± 12.9 Zone Units; in the assay with B16 (10 μg/DISK) it was 0 Zone Units; in the assay with B16 (100 μg/DISK), 27.4 ± 4.3 Zone Units; in the assay on P388 (10 μg/DISK), 120.0 ± 0.0 Zone Units; in the assay with P388 (100 μg/DISK), 400.0 Zone Units. Also, the zone of inhibition in the assay on P388/ADR (10 μg/DISK) is on record as 20.0 ± 0.0 Zone Units; with P388/ADR (100 μg/DISK) it was 76.5 ± 21.9 Zone Units; with LL (100 μg/DISK), 45.7 ± 21.5 Zone Units.
On to `CCOC(=O)[C@@H]1CC2=C(C(=O)c3c(c(O)c4ccccc4c3OC(C)=O)C2=O)[C@@H](O)O1` (mixture of isomers) [BCH-658, (1S,3S) and (1R,3R) Ethyl[11-acetoxy-1,6-dihydroxy-5,12-dioxo-3,4,5,12-tetrahydroanthraceno (2,3-c)pyran-3-yl]formate], for which the IC50 is 11.2 µM in the assay with SKOV3 (Homo sapiens, SK-OV-3, SKOV3); above 100 µM with HT29 [2] (Homo sapiens, HT-29, HT29); 66.2 µM with LOX; above 100 µM in the assay on T47D (Homo sapiens). The zone of inhibition in the assay with HT29 [1] (10 μg/DISK), in the assay on HT29 [1] (100 μg/DISK), with MATB.WT (10 μg/DISK), with MATB.WT (100 μg/DISK), in the assay on MATB/ADR (10 μg/DISK) and in the assay on MATB/ADR (100 μg/DISK) was 0 Zone Units in each case. In addition, the zone of inhibition in the assay with M5076 (10 μg/DISK) is on record as 26.6 ± 13.6 Zone Units; with M5076 (100 μg/DISK), 76.2 ± 21.5 Zone Units; with B16 (10 μg/DISK), 0 Zone Units; with B16 (100 μg/DISK), 0 Zone Units; in the assay with P388 (10 μg/DISK) it was 42.7 ± 17.2 Zone Units; in the assay with P388 (100 μg/DISK) it was 61.0 ± 0.0 Zone Units. For the same compound, the zone of inhibition with P388/ADR (10 μg/DISK) amounted to 18.3 ± 8.6 Zone Units; in the assay with P388/ADR (100 μg/DISK) it was 51.3 ± 20.7 Zone Units; in the assay on LL (100 μg/DISK), 51.9 ± 21.5 Zone Units.
Regarding `CCOC(=O)[C@@H]1CC2=C(C(=O)c3cc4ccccc4c(OC(C)=O)c3C2=O)[C@@H](O)O1` (mixture of isomers) [BCH-660, (1S,3S) and (1R,3R)-Ethyl-[6-acetoxy-1-hydroxy-5,12-dioxo-3,4,5,12-tetrahydroanthraceno (2,3-c)pyran-3-yl]formate], the IC50 was found to be 5.34 µM with SKOV3 (Homo sapiens, SK-OV-3, SKOV3); 2.92 µM with HT29 [2] (Homo sapiens, HT-29, HT29); 9.84 µM in the assay with LOX; 6.67 µM in the assay with T47D (Homo sapiens). Besides, the zone of inhibition worked out at 27.4 ± 4.3 Zone Units in the assay with HT29 [1] (10 μg/DISK); 103.7 ± 2.1 Zone Units in the assay on HT29 [1] (100 μg/DISK); 137.2 ± 21.5 Zone Units in the assay with MATB.WT (10 μg/DISK); 137.2 ± 21.5 Zone Units in the assay with MATB.WT (100 μg/DISK); 24.4 ± 8.6 Zone Units in the assay with MATB/ADR (10 μg/DISK); 161.5 ± 30.4 Zone Units in the assay with MATB/ADR (100 μg/DISK). Besides, the zone of inhibition with M5076 (10 μg/DISK) came out at 24.4 ± 8.6 Zone Units; in the assay on M5076 (100 μg/DISK), 61.0 ± 0.0 Zone Units; in the assay with B16 (10 μg/DISK) it was 6.1 ± 8.6 Zone Units; with B16 (100 μg/DISK), 85.4 ± 8.6 Zone Units; with P388 (10 μg/DISK), 18.3 ± 8.6 Zone Units; in the assay with P388 (100 μg/DISK), 54.9 ± 0.0 Zone Units. Besides, the values for the zone of inhibition in the assay with P388/ADR (10 μg/DISK), with P388/ADR (100 μg/DISK) and in the assay on LL (100 μg/DISK) were 6.1 ± 8.6 Zone Units, 54.9 ± 8.6 Zone Units and 55.0 ± 8.4 Zone Units, respectively.
With `COC(=O)[C@H]1CC2=C(C(=O)c3c(c(OC)c4ccccc4c3O)C2=O)[C@H](O[C@H]2C[C@H](NC(=O)C(F)(F)F)[C@H](O)[C@H](C)O2)O1` (mixture of isomers) [BCH-675, (1'S,1S,3R) and 1'S,1R,3S) Methyl(11-hydroxy-6-methoxy-1-[2',3',6'-trideoxy-3-trifluoroacetamido-4'-hydroxy-L-lyxohexopyranose]-5,12-dioxo-3,4,5,12-tetrahydroanthra-ceno[2,3-c]pyran-3-yl) formate], the IC50 in the assay on SKOV3 (Homo sapiens, SK-OV-3, SKOV3) was 9.16 µM; with HT29 [2] (Homo sapiens, HT-29, HT29) it was 5.26 µM; in the assay with LOX, 4.29 µM; in the assay with T47D (Homo sapiens), 2.8 µM. Also, the zone of inhibition came to 0 Zone Units in the assay with HT29 [1] (10 μg/DISK); 0 Zone Units in the assay on HT29 [1] (100 μg/DISK); 0 Zone Units in the assay with MATB.WT (10 μg/DISK); 32.5 ± 9.3 Zone Units in the assay on MATB.WT (100 μg/DISK); 22.3 ± 3.5 Zone Units with MATB/ADR (10 μg/DISK); 59.4 ± 8.6 Zone Units with MATB/ADR (100 μg/DISK). In addition, the zone of inhibition in the assay with M5076 (10 μg/DISK) amounted to 0 Zone Units; in the assay on M5076 (100 μg/DISK), 142.0 ± 35.2 Zone Units; in the assay on B16 (10 μg/DISK) it was 0 Zone Units; with B16 (100 μg/DISK) it was 0 Zone Units; in the assay on P388 (10 μg/DISK), 0 Zone Units; with P388 (100 μg/DISK), 152.5 ± 30.5 Zone Units. Also, the zone of inhibition in the assay on P388/ADR (10 μg/DISK) was 10.1 ± 9.3 Zone Units; in the assay with P388/ADR (100 μg/DISK), 146.3 ± 32.3 Zone Units; in the assay with LL (10 μg/DISK), 75.2 ± 40.5 Zone Units; in the assay on LL (100 μg/DISK) it was 264.0 ± 38.0 Zone Units.
Consider “Methyl(11-hydroxy-5,12-dioxo-3,4,5,12-tetrahydroanthraceno[2,3-c]pyran-3-yl)ketone and Methyl(5-hydroxy-5,12-dioxo-3,4,5,12-tetrahydroanthraceno[2,3-c]pyran-3-yl)ketone [BCH-687]”, for which the zone of inhibition with HT29 [1] (10 μg/DISK) is recorded as 61.0 ± 12.2 Zone Units; in the assay on HT29 [1] (100 μg/DISK), 150.4 ± 25.3 Zone Units; in the assay on MATB.WT (10 μg/DISK) it was 42.7 ± 6.1 Zone Units; with MATB.WT (100 μg/DISK), 97.6 ± 20.0 Zone Units; with MATB/ADR (10 μg/DISK), 69.1 ± 7.0 Zone Units; with MATB/ADR (100 μg/DISK), 101.6 ± 35.2 Zone Units. Further, the zone of inhibition was found to be 0 Zone Units in the assay on M5076 (10 μg/DISK); 410.8 ± 46.5 Zone Units in the assay on M5076 (100 μg/DISK); 34.6 ± 3.6 Zone Units with B16 (10 μg/DISK); 70.1 ± 13.0 Zone Units in the assay on B16 (100 μg/DISK); 81.3 ± 30.0 Zone Units with P388 (10 μg/DISK); 183.0 ± 81.0 Zone Units with P388 (100 μg/DISK). In addition, the zone of inhibition in the assay with P388/ADR (10 μg/DISK) is given as 0 Zone Units; in the assay on P388/ADR (100 μg/DISK), 153.6 ± 30.6 Zone Units; in the assay with LL (10 μg/DISK) it was 62.8 ± 30.7 Zone Units; in the assay on LL (100 μg/DISK), 182.6 ± 35.2 Zone Units.
